In series [1] the test system is A549 cells. Type of series: cell-based, human. Details: decrease of cell viability: dose or concentration left out as unconfirmed. Here is the method:
Cells were grown in 96-well plates at a density of 2.0 ×10^4 cells/well. Cells were treated with controls or QT/AM-21 at 50, 100, or 200 nM, with and without PTX (4.1 nM) dissolved in a small volume of 1:1 Cremophor EL:ethanol solution. Relative cell viability was quantified by CellTiter 96® AQueous One Solution Cell Proliferation Assay (Promega, Madison, Wis., USA) according to the manufacturer's protocol 72 h following the start of treatment. Briefly, 20 μL MTS assay solution was added to each well and the plates were incubated for 1 h. The absorbance at 490 nm was recorded to determine cytotoxicity relative to the untreated control.
A549 cells were cultured as in Example 2, and treated with either QT/AM-21 (5′-U*C*A*ACAUCAGUCUGAUAAG*C*U*A-3′, SEQ ID NO:3) at three different concentrations (50 nM, 100 nM or 200 nM), paclitaxel (PTX) or a combination of PTX and QT/AM-21 (PTX/50 nM QT/AM-21; PTX/QT/100 nM-21; TX/200 nM QT/AM-21). (Dosage of PXT was 4nM).
The cells were incubated with the drugs for 72 h; after which the cells were harvested and tested for cytotoxicity and viability using MTS assay kit by Promega. Absorbance scanning was done at 490 nm to determine relative cell viabilities.

The subject of another series is A549 xenograft. Put plainly: Combination therapy (QT/AM-21 and PTX) in A549 xenograft. Type of series: in vivo, mice. The conditions noted are these: 1 mg/kg QT/AM-21 tail vein and/or 3 mg/kg PTX i.p., start ~80 mm^3, 4 weeks. Here is the method:
Mice were treated by tail vein injection with saline control or 1 mg/kg QT/AM-21. Mice receiving PTX treatment as monotherapy or combination therapy received PTX dissolved in 1:1 Cremephor EL:ethanol solution at a dose of 3 mg/kg via intraperitoneal injection. Mice were dosed on days 1, 3, 5, 8, 15, 22, 29 and were monitored over a 4 week period. 48 h following the last dose, mice were euthanized and tumors were collected for gene regulation study.

Series [2] has as its system miR-21. Put plainly: In vivo gene regulation in A549 xenograft tumors (qRT-PCR). Also on record: species or system mice. The conditions noted are these: 1 mg/kg QT/AM-21 and/or 3 mg/kg PTX. Here is the method: Female athymic nude mice (n=5 per group) were implanted with 1.0×10^6 A549 cells/mouse and treatment began when tumors reached a size of ≥100 mm^3. Mice were treated by tail vein injection with saline control or 1 mg/kg QT/AM-21. Mice receiving PTX treatment as monotherapy or combination therapy received PTX dissolved in 1:1 Cremephor EL:ethanol solution at a dose of 3 mg/kg via intraperitoneal injection. Mice were dosed on days 1, 3, 5, 8, 15, 22, 29 and were monitored over a 4 week period. 48 h following the last dose, mice were euthanized and tumors were collected for gene regulation study.
Tumors were harvested and placed in TRIzol reagent (Life Technologies) following treatment and homogenized. mRNA was isolated per the manufacturer's protocol. qRT-PCR was then completed according to the same procedure as outlined in the in vitro section.
A general note: In qPCR the cycle at which signal appears reflects the starting amount.

Series [3] has as its system miR-21. Put plainly: In vitro gene regulation in A549 cells (qRT-PCR of miR-21 and its target genes). The format is cell-based, human. The conditions noted are these: 100 nM AM-21, mRNA relative to GAPDH. Here is the method:
Cells were grown in 24-well plates at a density of 7.0×10^5 cells/well 24 h prior to transfection. QT/AM-21 of varying lipid composition or QT/negative control (NC) were administered at 50 nM in the presence of 20% serum containing media to determine the optimal QT composition. […] Cells were incubated at 37° C. with transfection media for 4 h and then washed three times with PBS. Fresh complete cell culture media was added and the cells were incubated at 37° C. for an additional 44 h. RNA was isolated from cells by RNeasy 96 kit (Qiagen, Valencia, Calif., USA). qRT-PCR was conducted with Taqman® MicroRNA Assay (Life Technologies) or EXPRESS One-Step Superscript® qRT-PCR kit (Life Technologies) on an Applied Biosystems StepOnePlus™ RT-PCR system (Life Technologies). The relative amount of […] was calculated and compared according to the 2^−ΔΔCt method.
Lung cancer A549 cells (human lung adenocarcinoma epithelial cell line) were cultured in vitro as standard cell culture. Cells were cultured in RPMI 1640 media supplemented with 10% FBS and 1% antibiotics/antimycotics in a 5% CO2 atmosphere at 37° C. […]
RNA was extracted by TRIzol reagent per manufacturer's protocol. cDNA was generated by Maxima First Strand cDNA synthesis kit per manufacture's protocol. […] RECK and PTEN mRNA levels were measured relative to GAPDH.

Series [4] deals with A549 cells. Put plainly: Migration assay (scratch wound healing). The conditions noted are these: A549, QT lipids or AM-21 (200 nM) alone, 48 h. Type of series: cell-based, human. The protocol: A wound healing model was conducted to examine the migratory ability of A549 cells following treatment. A549 cells were plated at a density of 6.0×10^5 cells/well in a 33 mm petri dish 24 h prior to transfection. A scratch wound across the dish was made using a 10 μL pipet tip immediately before treatment. Culture media was removed and replaced with transfection media containing QT/AM-21 or appropriate controls diluted in complete media. Cells were allowed to proliferate at 37° C. for 48 h. Distances between edges of the wound were measured on a Nikon E800 microscope (Nikon, Tokyo, Japan) and SPOT Advanced Imaging Software (v5.0, Diagnostic Instruments Inc., Sterling Heights, Mich., USA).
A549 cells were cultured following standard culture procedure and incubated with QT/AM-21 (5′-U*C*A*ACAUCAGUCUGAUAAG*C*U*A-3′, SEQ ID NO:3) at three different concentrations (50 nM, 100 nM and 200 nM), or free, unformulated AM-21 (200 nM) for 48 hours. The untreated cells and cells treated with empty “QTsome™” lipid nanoparticle formulation were used as control. The migration of tumor cells was determined.

Series [5] deals with A549 cells. Nature of the series: Matrigel invasion assay. Type of series: cell-based, human. The conditions noted are these: A549, QT lipids or AM-21 alone, 48 h. Here is the method: Matrigel (BD Biosciences, San Jose, Calif., USA) was combined with serum-free RPMI 1640 culture media in a 1:1 ratio. 70 μL of gel was added to each well insert of a 24-well plate. The gel was allowed to set for 1 h at 37° C. A549 cells were seeded at […] in a volume of 100 μL/well on top of the gel in the insert. Transfection media containing various formulations or controls at 2×concentration in a 100 μL volume were added to the top of the well inserts. 500 μL 10% fetal bovine supplemented media was added as a chemoattractant below the transwell insert. The plate was incubated at 37° C. for 48 h. Following the incubation period, cells remaining in the top of the well inserts were removed with a cotton swab. Well inserts were rinsed with PBS and placed in 500 uL 0.25% trypsin solution for 1 h at 37° C. Detached cells were counted on a hemocytometer.
A matrigel invasion assay was also performed after 48 hour treatment, as follows: Chilled Matrigel was combined with chilled serum-free RPMI 1640 culture media in a 1:1 ratio. 70 uL of gel was added to each well insert of a 24-well plate. The gel was allowed to set for 1 hour at 37° C. A549 cells were seeded at 75,000 cells/well in a volume of 100 uL/well on top of the gel. […] Detached cells were counted on a hemocytometer.

Take `CC(=O)O[C@H]1C(=O)[C@@]2(C)[C@H]([C@H](OC(=O)c3ccccc3)[C@]3(O)C[C@H](OC(=O)[C@H](O)[C@@H](NC(=O)c4ccccc4)c4ccccc4)C(C)=C1C3(C)C)[C@]1(OC(C)=O)CO[C@@H]1C[C@@H]2O` [PTX, Paclitaxel]: the “cells still alive compared to untreated control” value in the series with A549 cells [1] (A549, PTX alone (4 nM), 72 h, MTS) is given as roughly 65%. The “decrease of cell viability” value in the series on A549 cells [1] (human, 72 h) was 40%. Besides, the “tumor volume at end of study” value with A549 xenograft stood at 246.4 mm^3. Further, in the series on miR-21 [2], the “upregulation of DDAH1 and PTEN in tumors” value is given as “moderate upregulation”. Further, in the series with miR-21 [2] (48 h after last dose), the “DDAH1 upregulation in tumors” value is 1.7 fold and the “PTEN upregulation in tumors” value is 1.5 fold.
For “u*c*a*acaucagucugauaag*c*u*a (UCAACAUCAGUCUGAUAAGCUA; linkages s3 o15 s3 (s phosphorothioate, o phosphodiester), sugars by position and methylation of C not given here; further chemistry not fully specified) [AM-21]”, in the series with miR-21 [3], the “expression of RECK compared to untreated control A549 cells” value was “upregulated”. In addition, the “change of cell viability on addition to PTX” value in the series with A549 cells [1] (A549, free AM-21 or QT lipids added to PTX, MTS) is on record as “did not result in significant decreases in cell viability”. In addition, the “cell migration in the wound region” value in the series on A549 cells [4] is recorded as “did not confer significant decreases in cell migration”. Also, the cell invasion entry in the series on A549 cells [5] was “did not significantly retard cell invasion”.
